# Assay results reported in patent publication US20240109915A1, “NOVEL ACC INHIBITORS” (Pfizer Inc., priority 2022, published 2024).
# How the values were obtained:
# [1] = Metabolite profile in liver microsomes, hepatocytes, recombinant human P450 and UGT enzymes, and animal plasma; type: in vitro ADME, mouse, rat, rabbit, dog, monkey; conditions: recombinant human cytochrome P450 and UGT enzymes, plasma from animals
# Method: The metabolite profile of compound of Example 14 was evaluated in liver microsomes and hepatocytes (mouse, rat, rabbit, dog, monkey, and human), recombinant human cytochrome P450 enzymes, recombinant human UGT enzymes, and plasma from animals (mouse, rat, and dog).
# [2] = target: recombinant human ACC1 (rhACC1) (Homo sapiens (Human), UniProt Q13085); test: Transcreener ADP detection FP assay, direct inhibition of rhACC1; type: biochemical; conditions: Geomean IC50, n ≥ 2 unless * then n = 1; 50 μM ATP, 30 μM acetyl-CoA
# [3] = system: SZ95 sebocytes; test: Radiometric measurement of de novo lipogenesis in cultured human sebocytes; type: cell-based; conditions: Geomean IC50, n>2 unless * then n=1, 14C acetate incorporation into lipids (DNL)
# Method: SZ95 sebocytes were grown in Human Sebocyte Growth Medium (HSGM) containing Sebomed® basal medium (Sigma-Aldrich, F8205) supplemented with 10% heat-inactivated fetal bovine serum (Gibco, 10100-147), 1% penicillin/streptomycin (Gibco, 15070-063), 1 mM calcium chloride (Fisher, BP9742-10X5) and 5 ng/mL recombinant human epidermal growth factor (Gibco, PHG0311). At 90% confluence, cells were washed with PBS and then detached with 0.05% Trypsin-EDTA (Gibco, 25300054). Prior to starting the assay, cells were centrifuged and resuspended in HSGM containing 5% charcoal-stripped serum (Life Technologies, 12676-029) instead of 10% heat-inactivated fetal bovine serum. Cells were added to 24-well plates at a density of 0.25×10^6 cells/well and incubated overnight at 37° C. to allow the cells to adhere to the culture plate. Cells were then treated with a dose response of compound (30, 1, 0.03, 0.006, 0.0009, 0.0002, and 0.00003 μM) with each concentration tested in duplicate. Briefly, compounds were dissolved in DMSO stocks and diluted 1:1000 into HSGM with charcoal-stripped media. The vehicle control wells were treated with 0.1% DMSO. After a 1-hour preincubation with compound or vehicle at 37° C., 0.25 μCi ^14C sodium acetate (American Radiolabeled Chemicals: ARC, 0173A) was added to each well. Plates were incubated for an additional two hours at 37° C. At the end of the incubation period, cells were removed from incubator, placed on ice, and then washed twice with ice-cold PBS to remove free ^14C-sodium acetate. Plates were sealed and stored at −20° C. until analysis. To induce lysis, 125 μL of mammalian protein extraction reagent (MPER; Fisher, 78501) was added to each well. Plates were shaken for 1 hour at room temperature and lysates transferred to individual 2 mL polypropylene tubes. Wells were then washed with 175 μL PBS, which was added to lysates. A chloroform:methanol solution (1:1 v/v, 450 μL) was added to each tube. All tubes were vortexed for 10 seconds and centrifuged at 14,000×g for 5 minutes at room temperature to separate the aqueous and organic phases. A 25 μL aliquot was removed from the bottom organic layer of each sample and added to 6 mL Optiphase Supermix scintillation fluid (PerkinElmer, 1200-439). Counts of ^14C were assessed by scintillation counting. DNL (counts of ^14C incorporated into lipids) was expressed as a percentage for compound treated cells relative to the vehicle control. IC50 values were determined using a non-linear regression (four parameter with variable slope) in GraphPad Prism.
metabolite profile [1],IC50 [2] [nM],IC50 [3] [nM],Structure (SMILES)
,11.7,47.2,COc1cc(C(=O)N2CCC3(CC2)CC(=O)c2nc(C(C)(C)C)sc2C3)cc(OC)c1C [Example 81]
,1.8,16.2,CNc1nc2c(C)cccc2cc1C(=O)N1CCC2(CC1)CC(=O)c1nc(C(C)(C)C)sc1C2 [Example 97]
,3.9,10,COc1cc(C(=O)N2CCC3(CC2)CC(=O)c2nc(C(C)(C)C)sc2C3)cc2c(C3CC3)nccc12 [Example 99]

# More lines, now with the values behind:
Structure (SMILES),metabolite profile [1],IC50 [2] [nM],IC50 [3] [nM]
"CCOc1cc(C(=O)N2CCC3(CC2)CC(=O)c2nc(C(C)(C)C)sc2C3)cc2c(C)nn(C)c12 [Example 14, 2-(tert-butyl)-1′-(7-ethoxy-1,3-dimethyl-1H-indazole-5-carbonyl)-5H-spiro[benzo[d]thiazole-6,4′-piperidin]-4(7H)-one]",oxidation and glucuronidation,2.2,5.9
"CNc1ccc2c(C)cc(C(=O)N3CCC4(CC3)CC(=O)c3nc(C(C)(C)C)sc3C4)cc2n1 [Example 38, 2-(tert-butyl)-1′-(5-methyl-2-(methylamino)quinoline-7-carbonyl)-5H-spiro[benzo[d]thiazole-6,4′-piperidin]-4(7H)-one]",,4.9,14.2
"Cc1cc(C(=O)N2CCC3(CC2)CC(=O)c2nc(C(C)(C)C)sc2C3)cc2c(Cl)c[nH]c12 [Example 42, 2-(tert-butyl)-1′-(3-chloro-7-methyl-1H-indole-5-carbonyl)-5H-spiro[benzo[d]thiazole-6,4′-piperidin]-4(7H)-one]",,3.1,15.9
COc1cc(C(=O)N2CCC3(CC2)CC(=O)c2nc(C(C)(C)C)sc2C3)cc2[nH]ccc12 [Example 61],,4.4,30.8
Cn1ccc2c(Cl)cc(C(=O)N3CCC4(CC3)CC(=O)c3nc(C(C)(C)C)sc3C4)cc21 [Example 79],,4.1,16.7
